Source: patent US12714682B2, “Calixarene compounds and uses thereof” (UNIVERSITÄT WIEN, priority 2019, dated 2026)
“Also recorded” adds a separate entry of the source.

Columns and labels:
HELA cells = test: Protection from H2O2 induced stress; type: cell-based
Procedure: Using an incubation time of 24 h, it was sufficient to determine the toxicity and rescue effect of SCA-744 in HELA cells.

[1] = tested on: SH-SY5Y neuroblastoma cells; test: MPP+ induced mitochondria fragmentation in SH-SY5Y cells (MitoTracker confocal imaging); type: cell-based, human; conditions: MPP+ 0.5 mM 48 hours, SCA-744 500 μM
Procedure: To test whether SCA-744 would be able to rescue cells from oxidative damage induced by mitochondrial dysfunction, SH-SY5Y neuroblastoma cells were treated with 1-methyl-4-phenylpyridinium (MPP+) (0.5 mM, 48 hours) to induce mitochondria fragmentation. […] To visualize mitochondria, cells were incubated with MitoTracker Red CMXRos, a mildly thiol-reactive chloromethyl moiety for mitochondria labelling (MitoTracker Red CMXRos #9082 Cell Signaling), fixed and mounted. Mitochondrial morphology was imaged with a laser scanning confocal microscope LSM710 Zeiss.

mice = test: CFA-induced chronic arthritis model: joint histology; type: in vivo; conditions: 60 mg/kg i.p. daily, 21-day period
Procedure: The chronic arthritis was induced by intraplantar (i.pl.) injection of 20 μl complete Freund's adjuvant (CFA, heat-killed Mycobacterium suspended in paraffin oil, 1 mg/ml; Sigma Aldrich, St. Louis, MO, USA) into the right hind paw and 20 μl subcutaneously (s.c.) into the tail root. An additional s.c. injection (20 μl) was administered on the following day (day 1) into the tail root in order to potentiate the systemic effects mimicking the human condition.
The excised tibiotarsal joints are fixed in 4% buffer formaldehye, decalcified and paraffin-embedded, sliced into sections (5 μm) and stained with hematoxylin and esosin. Arthritic changes are scored by a blinded observer using a scale of 0 to 3 according to 1) mononuclear cells infiltration into areolar tissue, 2) synovial hyperplasia, 3) cartilage destruction, 4) bone erosion.

[2] = tested on: Human neuroblastoma SH-SY5Y cells; test: Untargeted metabolic profiling of SH-SY5Y cells; type: cell-based; conditions: 500 μM, 24 h
Procedure: Human neuroblastoma SH-SY5Y cells were differentiated and treated with 500 μM SCA-744 for 24 h. Cell pellets were extracted using a MeOH:ACN:H2O (2:2:1, v/v) solvent mixture. Untargeted metabolic profiling was performed at the VBCF Metabolomic Unit (www.vbcf.ac.at) employing high-resolution mass spectrometry.
The untarged metabolomic data was analyzed with the Compound Discover Software (version 3.1). The first set of metabolites were analyzed through the internal database of the Vienna Biocenter Core facility. The measured retention time of a compound was compared to the retention time of a standard previously measured. In the case there was a MS2 spectrum available, this was also taken into consideration for identification. The second set of metabolites was annotated with mzCloud (match at least 75%). Identification was based on mzCloud database comparison of measured molecular weight (5 ppm tolerance) and MS2 spectra. The third set of metabolites were annotated via ChemSpider identification (CSID) through molecular weight matching (max. mass tolerance 5 ppm). P-values were calculated by the Compound Discover Software from biological and technical (T1-T2, MS) replicates. For further annotations KEGG, HMDB, BioCyc, Metabolika and PubChem databases were used.
The metabolites with a false discovery rate (FDR)<0.05 along with p-values and corresponding fold-change were extracted and subjected to chemical and metabolic network enrichment analysis. Enrichment analysis based on chemical similarity was conducted using ChemRich that is independent of biochemical pathway assignments, but rather utilizes Tanimoto substructure similarity coefficients and medical subject headings ontology to generate non-overlapping clusters of metabolites into distinct chemical classes. Statistical testing was determined by Kolmogorv-Smirnov testing and an FDR adjusted P value of <0.05 was considered significant.
Comparison of relative metabolite abundance between control and -treated cells was determined by unpaired univariate analysis. Calculated P values were adjusted based on an FDR of 0.05 and filtered by log Fold-Change (log FC) analysis (Table 3). For illustrative purposes the metabolites are annotated on the resulting volcano plot with log FC>1 log FC<−2. A total of 261 annotated metabolites were found with an FDR<0.05.

O=S(=O)(O)c1cc2c(O)c(c1)Cc1cc(S(=O)(=O)O)cc(c1O)Cc1cc(S(=O)(=O)O)cc(c1O)Cc1cc(S(=O)(=O)O)cc(c1O)C2 [SCA-744, 4-sulfocalix[4]arene]
EC50 (HELA cells; Homo sapiens, HELA, 24 h incubation, H2O2 50 mM, read-out: EC50 rescue from H2O2 toxicity): 200 nM | protection from H2O2 induced damage (HELA cells; mammalian cells, FIG. 20): protects against oxidative stress from H2O2 induced damage | mitochondria integrity after MPP+ [1]: protects against cell death and restores mitochondria integrity; also recorded: cells maintained the integrity of mitochondria | synovial hyperplasia score (scale 0 to 3) (mice): significantly lower | Glycolysis and NADH, as well as ATP [2]: significant down-regulated | Hypoxanthine and Inosine abundance [2]: highly significant up-regulated | Lysophosphatidyl (LPI) abundance [2]: most up-regulated metabolite | Thymine and adenine nucleotides, dipeptides and amino acids [2]: down-regulated | pharmacological response in metabolic analysis [2]: altered lipid metabolism, down-regulated glycolysis and reduction of NADH, ATP
